US20250268884A1, “Deuterated Domperidone for Treating Gastroparesis” (CinDome Pharma, Inc., priority 2022, published 2025)

Tested on: adults with idiopathic or diabetic gastroparesis
Assay: ANMS GCSI-DD total and subscale scores, ANMS GCSI-DD manual scoring method, Phase 2a
Type: in vivo, human
Conditions: for ANMS GCSI-DD early satiety subscale score, Baseline / ANMS GCSI-DD early satiety subscale score, Change from baseline to Day 14/EOT / ANMS GCSI-DD early satiety subscale score, Day 14/EOT / ANMS GCSI-DD early satiety subscale score, Percent change from baseline to Day 14/EOT / ANMS GCSI-DD nausea subscale score, Baseline / ANMS GCSI-DD nausea subscale score, Change from baseline to Day 14/EOT / ANMS GCSI-DD nausea subscale score, Day 14/EOT / ANMS GCSI-DD nausea subscale score, Percent change from baseline to Day 14/EOT / ANMS GCSI-DD postprandial fullness subscale score, Baseline / ANMS GCSI-DD postprandial fullness subscale score, Change from baseline to Day 14/EOT / ANMS GCSI-DD postprandial fullness subscale score, Day 14/EOT / ANMS GCSI-DD postprandial fullness subscale score, Percent change from baseline to Day 14/EOT / ANMS GCSI-DD total score, Baseline / ANMS GCSI-DD total score, Day 14/EOT / ANMS GCSI-DD total score, change from baseline to Day 14/EOT / ANMS GCSI-DD total score, percent change from baseline to Day 14/EOT / ANMS GCSI-DD upper abdominal pain subscale score, Baseline / ANMS GCSI-DD upper abdominal pain subscale score, Change from baseline to Day 14/EOT / ANMS GCSI-DD upper abdominal pain subscale score, Day 14/EOT / ANMS GCSI-DD upper abdominal pain subscale score, Percent change from baseline to Day 14/EOT / ANMS GCSI-DD vomiting subscale score, Baseline / ANMS GCSI-DD vomiting subscale score, Change from baseline to Day 14/EOT / ANMS GCSI-DD vomiting subscale score, Day 14/EOT / ANMS GCSI-DD vomiting subscale score, Percent change from baseline to Day 14/EOT: mean, ITT Population
Source text: As known in the art, the ANMS GCSI-DD covers 5 core relevant symptoms of gastroparesis: nausea, early satiety, postprandial fullness, upper abdominal pain and vomiting. Bloating is included as an exploratory symptom. Symptoms are rated on a severity numeric response scale from 0 (none) to 4 (very severe). Vomiting is captured on a frequency response scale and scored as follows: 0 for no episodes, 1 for one episode, 2 for 2 episodes, 3 for 3 episodes, and 4 for 4 or more episodes. In some embodiments, subjects recall symptoms over the previous 24 hours and completes the ANMS GCSI-DD patient-reported symptom questionnaire. In certain embodiments, the total ANMS GCSI-DD score is calculated as the mean of the 3 subscale scores for severity of nausea/vomiting, postprandial fullness/early satiety, and bloating. See, e.g., “The Use Manual for the ANMS GCSI-DD,” American Neurogastroenterology and Motility Society Gastroparesis Cardinal Symptom Index Daily Diary, 2018; https://www.fda.gov/media/125038/download. In other embodiments, the total ANMS GCSI-DD score is calculated using the ‘manual’ scoring method. The ANMS GCSI-DD manual scoring method is generated by summing the scores on each of the five symptom items (nausea, early satiety, postprandial fullness, upper abdominal pain, and number of vomiting episodes) and then dividing by 5, that is the number of items within the gastroparesis related symptom score. […] The ANMS GCSI-DD gastroparesis symptom daily score can range from 0 to 4. High scores on the ANMS GCSI-DD reflect greater symptom severity. See, e.g., “User Manuel for the ANMS GCSI-DD,” Federal Drug Administration at https://www.fda.gov/media/125038/download, which is hereby incorporated by reference.
The severity scores of 4 gastroparesis-related symptoms (nausea, early satiety, postprandial fullness, upper abdominal pain) range from 0-none to 4-very severe. The vomiting score assesses the number of vomiting episodes during the day, capped at a maximum of 4; thus, the scores for vomiting range from 0 (no episodes of vomiting) to 4 (4 or more episodes of vomiting). Vomiting frequency is scored as 0 episodes, 1 episode, 2 episodes, 3 episodes, or 4 or more episodes (capped as 4).
Table 11 presents the ANMS GCSI-DD total and subscale scores and change and percent change from baseline for the ITT Population using the ANMS GC SI-DD Manual scoring method. […] Subjects receiving placebo also experienced decreases in ANMS GCSI-DD total and subscale scores.

For [2H]c1c([2H])c([2H])c2c([nH]c(=O)n2CCCN2CCC(n3c(=O)[nH]c4cc(Cl)ccc43)CC2)c1[2H] [Deudomperidone, 1-{3-[4-(5-chloro-2-oxo-2,3-dihydro-1H-1,3-benzodiazol-1-yl)piperidin-1yl]propyl}-2,3-dihydro(4,5,6,7-D4)-1H-1,3-benzodiazol-2-one], the “ANMS GCSI-DD early satiety subscale score, Baseline” value (5 mg BID) was 2.63, the “ANMS GCSI-DD early satiety subscale score, Change from baseline to Day 14/EOT” value (5 mg BID) was −0.85 and the “ANMS GCSI-DD early satiety subscale score, Day 14/EOT” value (5 mg BID) was 1.78. For the same compound, the “ANMS GCSI-DD early satiety subscale score, Percent change from baseline to Day 14/EOT” value (5 mg BID) was −30.65%, the “ANMS GCSI-DD nausea subscale score, Baseline” value (5 mg BID) was 2.59 and the “ANMS GCSI-DD nausea subscale score, Change from baseline to Day 14/EOT” value (5 mg BID) was −0.93. The “ANMS GCSI-DD nausea subscale score, Day 14/EOT” value (5 mg BID) was 1.67, the “ANMS GCSI-DD nausea subscale score, Percent change from baseline to Day 14/EOT” value (5 mg BID) was −41.32% and the “ANMS GCSI-DD postprandial fullness subscale score, Baseline” value (5 mg BID) was 2.93. The “ANMS GCSI-DD postprandial fullness subscale score, Change from baseline to Day 14/EOT” value (5 mg BID) was −0.70, the “ANMS GCSI-DD postprandial fullness subscale score, Day 14/EOT” value (5 mg BID) was 2.22 and the “ANMS GCSI-DD postprandial fullness subscale score, Percent change from baseline to Day 14/EOT” value (5 mg BID) was −26.11%. For the same compound, the “ANMS GCSI-DD total score, Baseline” value (5 mg BID) was 2.16, the “ANMS GCSI-DD total score, Day 14/EOT” value (5 mg BID) was 1.47 and the “ANMS GCSI-DD total score, change from baseline to Day 14/EOT” value (from here on “ANMS GCSI-DD total score, change”) (5 mg BID) was −0.69. For the same compound, the “ANMS GCSI-DD total score, percent change from baseline to Day 14/EOT” value (“ANMS GCSI-DD total score, percent change” for short) (5 mg BID) was −35.01%, the “ANMS GCSI-DD upper abdominal pain subscale score, Baseline” value (5 mg BID) was 2.19 and the “ANMS GCSI-DD upper abdominal pain subscale score, Change from baseline to Day 14/EOT” value (5 mg BID) was −0.85. The “ANMS GCSI-DD upper abdominal pain subscale score, Day 14/EOT” value (5 mg BID) was 1.33, the “ANMS GCSI-DD upper abdominal pain subscale score, Percent change from baseline to Day 14/EOT” value (5 mg BID) was −43.15% and the “ANMS GCSI-DD vomiting subscale score, Baseline” value (5 mg BID) was 0.44. For the same compound, the “ANMS GCSI-DD vomiting subscale score, Change from baseline to Day 14/EOT” value (5 mg BID) was −0.11, the “ANMS GCSI-DD vomiting subscale score, Day 14/EOT” value (5 mg BID) was 0.33 and the “ANMS GCSI-DD vomiting subscale score, Percent change from baseline to Day 14/EOT” value (5 mg BID) was −64.00%. For the same compound, the “ANMS GCSI-DD early satiety subscale score, Baseline” value (10 mg BID) was 2.67, the “ANMS GCSI-DD early satiety subscale score, Change from baseline to Day 14/EOT” value (10 mg BID) was −1.08 and the “ANMS GCSI-DD early satiety subscale score, Day 14/EOT” value (10 mg BID) was 1.62. For the same compound, the “ANMS GCSI-DD early satiety subscale score, Percent change from baseline to Day 14/EOT” value (10 mg BID) was −40.56%, the “ANMS GCSI-DD nausea subscale score, Baseline” value (10 mg BID) was 2.52 and the “ANMS GCSI-DD nausea subscale score, Change from baseline to Day 14/EOT” value (10 mg BID) was −1.20. The “ANMS GCSI-DD nausea subscale score, Day 14/EOT” value (10 mg BID) was 1.34, the “ANMS GCSI-DD nausea subscale score, Percent change from baseline to Day 14/EOT” value (10 mg BID) was −48.88% and the “ANMS GCSI-DD postprandial fullness subscale score, Baseline” value (10 mg BID) was 3.01. The “ANMS GCSI-DD postprandial fullness subscale score, Change from baseline to Day 14/EOT” value (10 mg BID) was −1.24, the “ANMS GCSI-DD postprandial fullness subscale score, Day 14/EOT” value (10 mg BID) was 1.79 and the “ANMS GCSI-DD postprandial fullness subscale score, Percent change from baseline to Day 14/EOT” value (10 mg BID) was −41.52%. For the same compound, the “ANMS GCSI-DD total score, Baseline” value (10 mg BID) was 2.14, the “ANMS GCSI-DD total score, Day 14/EOT” value (10 mg BID) was 1.17 and the “ANMS GCSI-DD total score, change” value (10 mg BID) was −0.98. The “ANMS GCSI-DD total score, percent change” value (10 mg BID) was −44.07%, the “ANMS GCSI-DD upper abdominal pain subscale score, Baseline” value (10 mg BID) was 1.79 and the “ANMS GCSI-DD upper abdominal pain subscale score, Change from baseline to Day 14/EOT” value (10 mg BID) was −0.80. For the same compound, the “ANMS GCSI-DD upper abdominal pain subscale score, Day 14/EOT” value (10 mg BID) was 0.97, the “ANMS GCSI-DD upper abdominal pain subscale score, Percent change from baseline to Day 14/EOT” value (10 mg BID) was −50.43% and the “ANMS GCSI-DD vomiting subscale score, Baseline” value (10 mg BID) was 0.71. For the same compound, the “ANMS GCSI-DD vomiting subscale score, Change from baseline to Day 14/EOT” value (10 mg BID) was −0.59, the “ANMS GCSI-DD vomiting subscale score, Day 14/EOT” value (10 mg BID) was 0.14 and the “ANMS GCSI-DD vomiting subscale score, Percent change from baseline to Day 14/EOT” value (10 mg BID) was −71.73%. The “ANMS GCSI-DD early satiety subscale score, Baseline” value (20 mg QD) was 2.64, the “ANMS GCSI-DD early satiety subscale score, Change from baseline to Day 14/EOT” value (20 mg QD) was −1.44 and the “ANMS GCSI-DD early satiety subscale score, Day 14/EOT” value (20 mg QD) was 1.20. For the same compound, the “ANMS GCSI-DD early satiety subscale score, Percent change from baseline to Day 14/EOT” value (20 mg QD) was −54.88%, the “ANMS GCSI-DD nausea subscale score, Baseline” value (20 mg QD) was 2.67 and the “ANMS GCSI-DD nausea subscale score, Change from baseline to Day 14/EOT” value (20 mg QD) was −1.93. The “ANMS GCSI-DD nausea subscale score, Day 14/EOT” value (20 mg QD) was 0.73, the “ANMS GCSI-DD nausea subscale score, Percent change from baseline to Day 14/EOT” value (20 mg QD) was −62.56% and the “ANMS GCSI-DD postprandial fullness subscale score, Baseline” value (20 mg QD) was 2.84. For the same compound, the “ANMS GCSI-DD postprandial fullness subscale score, Change from baseline to Day 14/EOT” value (20 mg QD) was −1.31, the “ANMS GCSI-DD postprandial fullness subscale score, Day 14/EOT” value (20 mg QD) was 1.53 and the “ANMS GCSI-DD postprandial fullness subscale score, Percent change from baseline to Day 14/EOT” value (20 mg QD) was −45.50%. For the same compound, the “ANMS GCSI-DD total score, Baseline” value (20 mg QD) was 2.13, the “ANMS GCSI-DD total score, Day 14/EOT” value (20 mg QD) was 0.88 and the “ANMS GCSI-DD total score, change” value (20 mg QD) was −1.25. For the same compound, the “ANMS GCSI-DD total score, percent change” value (20 mg QD) was −55.99%, the “ANMS GCSI-DD upper abdominal pain subscale score, Baseline” value (20 mg QD) was 1.96 and the “ANMS GCSI-DD upper abdominal pain subscale score, Change from baseline to Day 14/EOT” value (20 mg QD) was −1.09. The “ANMS GCSI-DD upper abdominal pain subscale score, Day 14/EOT” value (20 mg QD) was 0.87, the “ANMS GCSI-DD upper abdominal pain subscale score, Percent change from baseline to Day 14/EOT” value (20 mg QD) was −41.03% and the “ANMS GCSI-DD vomiting subscale score, Baseline” value (20 mg QD) was 0.53. The “ANMS GCSI-DD vomiting subscale score, Change from baseline to Day 14/EOT” value (20 mg QD) was −0.47, the “ANMS GCSI-DD vomiting subscale score, Day 14/EOT” value (20 mg QD) was 0.07 and the “ANMS GCSI-DD vomiting subscale score, Percent change from baseline to Day 14/EOT” value (20 mg QD) was −94.64%. For the same compound, the “ANMS GCSI-DD total score and all subscale scores at Day 14/EOT, manual scoring” value (all deudomperidone treatment groups, placebo also decreased) was “decreased from baseline”.
